Residues, ends and D or L forms follow the SMILES beside them. *: point of attachment. MeOSuc = COC(=O)CCC(=O)*; CH2Cl = ClC*
Columns and labels:
[1] = tested on: PC-12 cells; experiment: STS-induced apoptosis in PC-12 cells, morphological quantification; format: cell-based, rat
Method: (§1) The rat pheochromocytoma PC-12 cell line was propagated in DMEM medium (Gibco, BRL), supplemented with 5% heat-inactivated calf serum, 10% heat-inactivated horse serum, and 2 mM L-glutamine. […]. Then the cells were washed twice and maintained in glucose-free RPMI-1640 medium (Beit Haemek, Israel), and supplemented with 2 mM pyruvate and 10% dialyzed FCS for one hour. U-937 and PC-12 cells were incubated with and without 1 μM oligomycin (Sigma) for 45 min, and cells were treated with or without 1.25 μM staurosporine (STS) (Sigma) for an additional seven hours in U-937 cells or five hours in PC-12 cells. Alternatively, cells were treated with or without 100 ng/ml anti-Fas (Upstate biotechnology, USA) for the same time period.
(§2) 200 μM elastase inhibitor III (MeOSuc-Ala-Ala-Pro-Val-CMK from Calbiochem) when added was administered 30 min before addition of the inducers. The inhibitor was dissolved in DMSO to a concentration of 100 mM. The final concentration of DMSO in the system was 0.2%, and was added to all treatments. In separate experiments, 200 μM of an elastase inhibitor (CE1037, manufactured by Cortech Inc.) was administered 30 min before addition of the inducers. The inhibitor was dissolved in PBS.
(§3) Cells undergoing morphological changes associated with apoptotic or necrotic cell death were monitored as described by McGahon et al. [Methods Cell Biol, 46: p. 153-85 (1995)]. Briefly, 1 ml of the cells was collected and centrifuged. The pellet was resuspended in a 20-fold dilution of the dye mixture (composed of 100 μg/ml acridine orange and 100 μg/ml ethidium bromide in PBS), placed on a glass slide and viewed on an inverted fluorescence microscope. A minimum of 200 cells was scored for each sample.

[2] = tested on: PC-12 cells; experiment: STS plus oligomycin-induced necrosis in PC-12 cells, morphological quantification; format: cell-based, rat
Method: as §1
as §2, with “200 μM elastase inhibitor III (MeOSuc-Ala-Ala-Pro-Val-CMK from Calbiochem) when added was administered 30 min before addition of the inducers.” left out
as §3

[3] = tested on: elastase-like activity; experiment: Gelatin substrate gel electrophoresis of U-937 cell lysates, gel incubated with protease inhibitors; format: biochemical, Human; settings: 100 μM inhibitor in gel incubation
[4] = tested on: U-937 cells; experiment: Anti-Fas-induced apoptosis/necrosis in U-937 cells, morphological quantification (acridine orange/ethidium bromide); format: cell-based, Human; settings: for effect on anti-Fas-induced apoptotic and necrotic cell death: anti-Fas with or without oligomycin, inhibitor added
Method: (§4) Human promonocytic U-937 cells in logarithmic phase were seeded at a concentration of 4×10^5/ml. Afterwards the cells were washed twice and seeded again in glucose-free RPMI-1640 medium (Beit Haemek, Israel) supplemented with 2 mM pyruvate (Beit Haemek, Israel) and 10% dialyzed FCS (Gibco, BRL) for one hour.
as §1, §2, §3

[5] = tested on: U-937 cells; settings: elastase inhibitor III without KCN
[6] = tested on: PC-12 cells; experiment: KCN-induced necrosis in PC-12 cells, morphological quantification; format: cell-based, rat
Method: The rat pheochromocytoma PC-12 cell line was propagated in DMEM medium (Gibco, BRL), supplemented with 5% heat-inactivated calf serum, 10% heat-inactivated horse serum, and 2 mM L-glutamine. PC-12 cells in logarithmic phase were seeded at a concentration of 1.2×10^5/well in 24-well plates (Cellstar). Then the cells were washed twice and maintained in glucose-free RPMI-1640 medium (Beit Haemek, Israel), and supplemented with 2 mM pyruvate and 10% dialyzed FCS for one hour. […] Alternatively, cells were treated with or without 100 ng/ml anti-Fas (Upstate biotechnology, USA) for the same time period. U-937 and PC-12 cells cultured in complete RPMI-1640 medium were washed and seeded in glucose-free RPMI-1640 medium, as described above, and treated with or without 0.5 mM KCN (Merck, Germany) for seven hours with U-937 cells, or for five hours with PC-12 cells. […] Cells undergoing morphological changes associated with apoptotic or necrotic cell death were monitored as described by McGahon et al. [Methods Cell Biol, 46: p. […] The pellet was resuspended in a 20-fold dilution of the dye mixture (composed of 100 μg/ml acridine orange and 100 μg/ml ethidium bromide in PBS), placed on a glass slide and viewed on an inverted fluorescence microscope. A minimum of 200 cells was scored for each sample.

[7] = tested on: U-937 cells; experiment: STS plus oligomycin-induced cell killing in U-937 cells, trypan blue exclusion; format: cell-based, Human
Method: as §4, §1
200 μM elastase inhibitor III (MeOSuc-Ala-Ala-Pro-Val-CMK from Calbiochem) when added was administered 30 min before addition of the inducers. […]
At each time point, cell viability was determined by the trypan blue exclusion method (Daniel C P, Parreira A., et al. Leukemia Res. 11:191-196 (1987). Assays were performed in duplicate.

[8] = tested on: elastase-like activity; experiment: Gelatin substrate gel electrophoresis of lysates of U-937 cells treated with KCN and elastase inhibitor; format: cell-based, Human; settings: 5 mM KCN, 200 μM elastase inhibitor, 3 h
[9] = lysate of U-937 cells treated with 0.5 mM KCN for 3 h
[10] = lysate of U-937 cells treated with anti-Fas and oligomycin for 3 h
[11] = 1.25 μM STS with 1 μM oligomycin, 100 μM elastase inhibitor

SMILES: CN[C@@H]1C[C@H]2O[C@@](C)([C@@H]1OC)n1c3ccccc3c3c4c(c5c6ccccc6n2c5c31)C(=O)NC4 [STS, staurosporine]
- apoptosis ([1]; 1.25 μM STS alone, compared to control): about 73%
- necrosis ([2]; 1.25 μM STS with 1 μM oligomycin): about 70%

SMILES: CC(C)C[C@H](NC(=O)N[C@H](C(=O)N[C@@H](CCC(N)=O)C(=O)N[C@@H](C)C=O)[C@@H]1CCNC(=N)N1)C(=O)O [elastinal]
- band of protease activity in presence of inhibitor [3, 9]: disappeared
- band of protease activity in presence of inhibitor [3, 10]: disappeared
- effect on anti-Fas-induced apoptotic and necrotic cell death [4]: had no effect

SMILES: COC(=O)CCC(=O)N[C@@H](C)C(=O)N[C@@H](C)C(=O)N1CCC[C@H]1C(=O)N[C@H](C(=O)CCl)C(C)C [elastase inhibitor III, MeOSuc-Ala-Ala-Pro-Val-CMK] (MeOSuc-AAPV-CH2Cl)
- cell damage by inhibitor alone [5]: did not cause any cell damage

SMILES: CC[C@H]1/C=C/C=C/C[C@@H](C)[C@H](O)[C@@](C)(O)C(=O)[C@@H](C)[C@H](O)[C@@H](C)C(=O)[C@@H](C)[C@H](O)[C@@H](C)/C=C/C(=O)O[C@@H]2[C@H](C)[C@H](CC1)O[C@]1(CC[C@H](C)[C@H](C[C@@H](C)O)O1)[C@H]2C [Oligomycin, oligomycin]
- effect of oligomycin by itself on cell death ([4]; 1 μM oligomycin alone): inactive by itself
- effect of oligomycin by itself on cell death ([2]; oligomycin alone): inactive by itself

SMILES: Cc1ccc(S(=O)(=O)N[C@@H](Cc2ccccc2)C(=O)CCl)cc1 [TPCK]
- band of protease activity in presence of inhibitor [3, 9]: not
- band of protease activity in presence of inhibitor [3, 10]: not

SMILES: CC(C)(CS(=O)(=O)c1ccc(OC(=O)C(C)(C)c2ccc(C(C)(C)C(=O)Oc3ccc(S(=O)(=O)CC(C)(C)C(=O)O)cc3)cc2)cc1)C(=O)O [CE1037]
- effect of inhibitor by itself ([6]; 200 μM inhibitor without KCN): inactive by itself
- effect on necrosis induced by KCN ([6]; 0.5 mM KCN, 200 μM inhibitor): significantly inhibited necrosis
- effect of inhibitor by itself on cell survival ([7]; 48 hours, inhibitor alone): slight effect by itself
- effect on cell killing induced by STS and oligomycin (cell viability, trypan blue) ([7]; prolonged incubation of 48 hours): significantly inhibited cell killing
- effect on anti-Fas-induced apoptotic and necrotic cell death [4]: completely abrogated apoptotic as well as necrotic cell death
- effect on apoptosis induced by STS ([1]; 1.25 μM STS, 200 μM elastase inhibitor): significantly inhibited apoptosis
- effect of inhibitor by itself ([1]; 200 μM elastase inhibitor without STS): inactive by itself
- necrotic cell death [2, 11]: 9%
- necrotic cell death shifted to apoptotic cell death [2, 11]: 39%
- effect on necrosis induced by STS ([2]; 1.25 μM STS with 1 μM oligomycin, 200 μM elastase inhibitor): completely abrogated necrosis
- effect of inhibitor by itself ([2]; 200 μM elastase inhibitor alone): inactive by itself
- band of protease activity when KCN administered with inhibitor [8]: disappeared
